Measurements reported in patent US7115655B2, “Pyranocoumarin derivatives” (Elcom Biotechnology, Co. Ltd., priority 2002, dated 2006).
Like-named read-outs stand apart in the source and are kept apart here.

Key:
[1] = target: T1, AChE (Electric eel Type V-S, Sigma) (Electrophorus electricus, UniProt O42275); assay: biochemical; assay type: biochemical
T1 construct: purchased Sigma Type V-S
Description: AChE inhibitory activity of the methanolic extract and CH2Cl2 fraction of Angelica gigas of the above Example 1 was measured by the method of Ellman et al. (Ellman, et al. (1961) A new and rapid colorimetric determination of acetylcholinesterase activity, Biochem. Pharmacol. 7: 88–95).
(§1) To a test tube containing a chromogen (5,5-dithiobis-2-nitrobenzoic acid) and a sample was added AChE homogenated with phosphate buffered saline (Electric eel Type V-S, Sigma), and a reaction was performed at 37° C. for 5 minutes, and thereto was added a substrate for the enzyme, […], and a reaction was further performed at 37° C. for 3 minutes. Neostigmine bromide was added thereto to terminate the reaction, and then, the absorbance was measured at 412 nm to obtain AChE inhibition (%). The above procedure was repeated with no AChE as a blank, or with no sample as a control.
AChE inhibitory activity of decursin of the above Example 2 and Compound 3 of the above Example 3 was measured according to the method in Experiment 1.
as §1, with “minutes. The above procedure was repeated with no AChE as a blank or with no sample as a control.” for “minutes.”, “obtain IC50 of” for “obtain”, “inhibition.” for “inhibition (%). The above procedure was repeated with no AChE as a blank, or with no sample as a control.”

[2] = tested on: mice with scopolamine-induced amnesia; assay: Passive avoidance test in mice with scopolamine-induced amnesia; assay type: in vivo, Male ICR mice; details: for cognition-enhancing activity in passive avoidance test, in words: mice with scopolamine-induced amnesia
From the text: Male ICR mice weighing 25 to 30 g that had been bred with sufficient water and feed in the Experimental Animal Breeding Center of Seoul National University were supplied and adapted to the laboratory environment for 1 week to be used in this experiment.
An avoidance box (40×20×20 cm) equipped with 3 mm stainless steel rod spaced 0.5 cm apart at the bottom was divided into a light compartment and a dark compartment, and when mice placed in the light compartment entered the dark compartment, an electrical shock (0.1 mA/10 g body weight) was delivered through the stainless steel rods. The above procedure was repeated after 24 hours, and the time for which the mice stayed at the light compartment was measured and used as an index of memorizing the training of the previous day. Passive avoidance test was performed according to the method of Christensen et al. (Cholinergic ‘Blockade’ as a model of the cognitive deficits in Alzheimer's disease, Brain 115: 1681–1699, 1992). Specifically, scopolamine was dissolved in physiological saline to 1.5 mg/kg solution, and the solution was subcutaneously injected to mice 30 minutes before the training to induce amnesia. The Angelica gigas extract was intraperitoneally injected to the mice 1 hour before the scopolamine administration, and observed for its effect on the scopolamine-induced amnesia.
Passive avoidance test was performed according to the method of the above Experiment 1(2) to measure effects of pyranocoumarin derivatives of the present invention. Velnacrine (AChE inhibitor) was used as a positive control.

[3] = Table 4, 1 mg/kg + scopolamine 1.5 mg/kg, Mean ± S.D.
[4] = Table 4, 5 mg/kg + scopolamine 1.5 mg/kg, Mean ± S.D.
[5] = read-out: IC50 of AChE inhibition

T1 sequence (O42275 24-633): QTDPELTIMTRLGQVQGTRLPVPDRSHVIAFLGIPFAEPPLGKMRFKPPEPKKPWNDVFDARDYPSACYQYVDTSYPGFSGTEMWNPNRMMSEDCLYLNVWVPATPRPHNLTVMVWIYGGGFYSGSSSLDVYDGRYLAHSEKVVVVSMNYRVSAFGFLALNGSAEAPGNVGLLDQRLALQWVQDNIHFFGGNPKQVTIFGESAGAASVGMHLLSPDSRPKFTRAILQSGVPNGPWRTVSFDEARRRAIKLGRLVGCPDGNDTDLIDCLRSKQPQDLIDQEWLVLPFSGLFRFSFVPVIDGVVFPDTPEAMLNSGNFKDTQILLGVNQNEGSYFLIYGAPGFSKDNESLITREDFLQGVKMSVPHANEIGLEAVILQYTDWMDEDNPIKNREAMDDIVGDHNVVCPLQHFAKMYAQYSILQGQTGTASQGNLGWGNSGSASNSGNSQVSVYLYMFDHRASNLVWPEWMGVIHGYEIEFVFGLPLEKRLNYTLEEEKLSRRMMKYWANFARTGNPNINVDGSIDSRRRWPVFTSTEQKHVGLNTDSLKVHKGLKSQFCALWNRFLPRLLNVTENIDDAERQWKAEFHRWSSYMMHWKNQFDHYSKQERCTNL

Compound	AChE inhibitory activity, comparison in words [1]	Step-through latency [2, 3] [s]	Step-through latency [2, 4] [s]	cognition-enhancing activity in passive avoidance test, in words [2]	IC50 [1, 5] [µM]	other results
CC(C)=CC(=O)O[C@H]1Cc2cc3ccc(=O)oc3cc2OC1(C)C [Compound 1, decursin]	better AChE inhibitory activity than decursinol	108.6 ± 15.0	96.5 ± 18.2	excellent cognition-enhancing activity	–	IC50 [1]: 480 µM; Step-through latency ([2]; Table 4, 0.5 mg/kg + scopolamine 1.5 mg/kg, Mean ± S.D.): 32.1 ± 13.4 s
CC1(C)Oc2cc3oc(=O)ccc3cc2C[C@@H]1O [Compound 2, decursinol, reference compound]	–	52.1 ± 8.8	54.4 ± 10.6	did not show such activity	28	Step-through latency ([2]; Table 4, 10 mg/kg + scopolamine 1.5 mg/kg, Mean ± S.D.): 43.2 ± 7.7 s
COc1ccc(/C=C/C(=O)OC2Cc3cc4ccc(=O)oc4cc3OC2(C)C)cc1 (stereo not drawn) [Compound 3]	better AChE inhibitory activity than decursinol	–	–	excellent cognition-enhancing activity	51	Step-through latency ([2]; Table 5, 1 mg/kg + scopolamine 1.5 mg/kg, Mean ± S.D.): 42.0 ± 17.9 s; Step-through latency ([2]; Table 5, 2 mg/kg + scopolamine 1.5 mg/kg, Mean ± S.D.): 86.0 ± 18.2 s; Step-through latency ([2]; Table 5, 5 mg/kg + scopolamine 1.5 mg/kg, Mean ± S.D.): 171.2 ± 18.7 s
CN1[C@@H]2C[C@@H](OC(=O)[C@H](CO)c3ccccc3)C[C@H]1[C@@H]1O[C@@H]12 [Scopolamine, scopolamine, reference compound]	–	–	–	–	–	Step-through latency ([2]; Table 2, scopolamine alone 1.5 mg/kg s.c. (amnesia induction), saline 158.8 ± 27.6): 29.7 ± 3.1 s; Step-through latency ([2]; Table 4, scopolamine alone 1.5 mg/kg s.c. (amnesia induction), saline 172.0 ± 16.0): 29.7 ± 2.8 s; Step-through latency ([2]; Table 5, scopolamine alone 1.5 mg/kg s.c. (amnesia induction), saline 179.7 ± 0.6): 28.4 ± 10.1 s
Nc1c2c(nc3ccccc13)CCCC2O (stereo not drawn) [velnacrine, Velnacrine, reference compound]	–	73.4 ± 6.4	–	–	–	–
